Patent US7635716B2, “Substituted cyclopentanes or cyclopentanones as therapeutic agents” (Allergan, Inc., priority 2005, dated 2009)
pEC50: −log10 of the molar value. Read-outs that look alike come from different tables or passages of the source.

Key:
hEP2/Gqs5 = target: T1, hEP2/Gqs5 (Homo sapiens, UniProt P43116); assay: FLIPR calcium signal, HEK-293(EBNA) cells; type: cell-based
T1 construct: expressed in transfected cells; host or cells: HEK-293(EBNA) cells
Procedure: (§1) HEK-293(EBNA) cells, stably expressing one type or subtype of recombinant human prostaglandin receptors (prostaglandin receptors expressed: hDP/Gqs5; hEP1; hEP2/Gqs5; hEP3A/Gqi5; hEP4/Gqs5; hFP; hIP; hTP), were cultured in 100 mm culture dishes in high-glucose DMEM medium containing 10% fetal bovine serum, 2 mM 1-glutamine, 250 μg/ml geneticin (G418) and 200 μg/ml hygromycin B as selection markers, and 100 units/ml penicillin G, 100 μg/ml streptomycin and 0.25 μg/ml amphotericin B.
(§2) Cells were seeded at a density of 5×10^4 cells per well in Biocoat® Poly-D-lysine-coated black-wall, clear-bottom 96-well plates (Becton-Dickinson) and allowed to attach overnight in an incubator at 37° C. Cells were then washed two times with HBSS-HEPES buffer (Hanks Balanced Salt Solution without bicarbonate and phenol red, 20 mM HEPES, pH 7.4) using a Denley Cellwash plate washer (Labsystems). After 45 minutes of dye-loading in the dark, using the calcium-sensitive dye Fluo-4 AM at a final concentration of 2 μM, plates were washed four times with HBSS-HEPES buffer to remove excess dye leaving 100 μl in each well. Plates were re-equilibrated to 37° C. for a few minutes.
(§3) Cells were excited with an Argon laser at 488 nm, and emission was measured through a 510-570 nm bandwidth emission filter (FLIPR™, Molecular Devices, Sunnyvale, Calif.). Drug solution was added in a 50 μl volume to each well to give the desired final concentration. The peak increase in fluorescence intensity was recorded for each well. On each plate, four wells each served as negative (HBSS-HEPES buffer) and positive controls (standard agonists: BW245C (hDP); PGE2 (hEP1; hEP2/Gqs5; hEP3A/Gqi5; hEP4/Gqs5); PGF2. (hFP); carbacyclin (hIP); U-46619 (hTP), depending on receptor). The peak fluorescence change in each drug-containing well was then expressed relative to the controls.
(§4) Compounds were tested in a high-throughput (HTS) or concentration-response (CoRe) format. In the HTS format, forty-four compounds per plate were examined in duplicates at a concentration of 10^−5 M. To generate concentration-response curves, four compounds per plate were tested in duplicates in a concentration range between 10^−5 and 10^−11 M. The duplicate values were averaged. In either, HTS or CoRe format each compound was tested on at least 3 separate plates using cells from different passages to give an n≧3.

hEP4/Gqs5 = target: T2, hEP4/Gqs5 (Homo sapiens, UniProt P35408); assay: FLIPR calcium signal, HEK-293(EBNA) cells; type: cell-based
T2 construct: expressed in transfected cells; host or cells: HEK-293(EBNA) cells
Procedure: as §1, §2, §3, §4

hEP3A/Gqi5 = target: T3, hEP3A/Gqi5 (Homo sapiens, UniProt P43115); assay: FLIPR calcium signal, HEK-293(EBNA) cells; type: cell-based
T3 construct: expressed in transfected cells; host or cells: HEK-293(EBNA) cells
T3 sequence (P43115 1-390): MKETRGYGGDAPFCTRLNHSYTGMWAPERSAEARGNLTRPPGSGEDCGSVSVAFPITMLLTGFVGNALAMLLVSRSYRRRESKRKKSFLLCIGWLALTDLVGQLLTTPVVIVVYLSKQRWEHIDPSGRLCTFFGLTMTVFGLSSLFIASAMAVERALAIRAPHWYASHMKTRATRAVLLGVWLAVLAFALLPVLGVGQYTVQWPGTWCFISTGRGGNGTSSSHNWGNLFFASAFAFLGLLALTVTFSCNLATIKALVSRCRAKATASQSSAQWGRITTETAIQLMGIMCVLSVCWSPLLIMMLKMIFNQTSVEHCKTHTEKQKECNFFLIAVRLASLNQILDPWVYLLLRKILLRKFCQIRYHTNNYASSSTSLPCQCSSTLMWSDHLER
Procedure: as §1, §2, §3, §4

hEP1 = target: T4, hEP1 (Homo sapiens, UniProt P34995); assay: FLIPR calcium signal, HEK-293(EBNA) cells; type: cell-based
T4 construct: expressed in transfected cells; host or cells: HEK-293(EBNA) cells
T4 sequence (P34995 1-402): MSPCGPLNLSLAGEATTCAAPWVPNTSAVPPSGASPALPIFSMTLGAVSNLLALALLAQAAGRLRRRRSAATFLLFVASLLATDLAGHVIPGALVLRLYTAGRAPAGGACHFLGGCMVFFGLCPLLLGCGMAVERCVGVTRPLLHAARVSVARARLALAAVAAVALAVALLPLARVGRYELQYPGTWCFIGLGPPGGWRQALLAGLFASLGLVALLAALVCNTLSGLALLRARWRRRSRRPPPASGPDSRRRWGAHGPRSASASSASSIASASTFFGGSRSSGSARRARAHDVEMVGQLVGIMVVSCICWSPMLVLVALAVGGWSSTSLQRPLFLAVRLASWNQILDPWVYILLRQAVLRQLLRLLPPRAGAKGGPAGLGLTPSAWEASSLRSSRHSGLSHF
Procedure: as §1, §2, §3, §4

hDP/Gqs5 = target: T5, hDP/Gqs5 (Homo sapiens, UniProt Q13258); assay: FLIPR calcium signal, HEK-293(EBNA) cells; type: cell-based
T5 construct: expressed in transfected cells; host or cells: HEK-293(EBNA) cells
T5 sequence (Q13258 1-359): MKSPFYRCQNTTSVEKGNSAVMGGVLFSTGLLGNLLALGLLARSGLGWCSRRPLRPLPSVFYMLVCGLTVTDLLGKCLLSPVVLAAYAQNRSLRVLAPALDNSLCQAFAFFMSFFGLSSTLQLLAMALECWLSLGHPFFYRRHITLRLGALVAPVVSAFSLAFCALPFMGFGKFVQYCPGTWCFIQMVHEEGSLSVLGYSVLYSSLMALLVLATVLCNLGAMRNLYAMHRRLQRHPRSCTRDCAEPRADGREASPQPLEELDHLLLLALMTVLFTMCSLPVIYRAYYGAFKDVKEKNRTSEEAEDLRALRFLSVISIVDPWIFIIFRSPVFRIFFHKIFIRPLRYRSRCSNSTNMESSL
Procedure: as §1, §2, §3, §4

normotensive dogs [1] = assay: Intraocular pressure (IOP) in normotensive dogs; type: in vivo, dog; settings: Canis lupus familiaris, topical, 120 h, 0.1%, dosing once daily for 5 days, read-out: maximum IOP decrease from baseline (percent)
Procedure: (§5) (Z)-7-[(1R,2S,3R,5R)-5-Chloro-2-(3,5-dichloro-phenoxymethyl)-3-hydroxy-cyclopentyl]-hept-5-enoic acid (15b) was tested at multiple concentrations in normotensive dogs, dosing once daily for 5 days. At 0.05%, the maximum IOP decrease from baseline was 4.3 mmHg (30%) at 6 h; the maximum OSH score was 0.6 at 6 h. […] This compound was also tested in laser-induced hypertensive monkeys, using one single day dose. At 0.1%, the maximum IOP decrease from baseline was 6 mmHg (19%) at 6 h.
(§6) (Z)-7-[(1R,2S,3R,5R)-5-Chloro-2-(3,5-dichloro-phenoxymethyl)-3-hydroxy-cyclopentyl]-hept-5-enoic acid isopropyl ester (42b) was tested in normotensive dogs at 0.05%, dosing once daily for 5 days. The maximum intraocular pressure (IOP) decrease from baseline was 3 mmHg (19%) at 6 h; the maximum ocular surface hyperemia (OSH) score was 0.6 at 74 h. This compound was also tested in laser-induced hypertensive monkeys, using one single day dose. At 0.01%, the maximum IOP decrease from baseline was 6 mmHg (16%) at 6 h.

[2] = tested on: laser-induced hypertensive monkeys; assay: Intraocular pressure (IOP) in laser-induced hypertensive monkeys; type: in vivo, monkey; settings: Primates, topical, 0.1%, one single day dose, read-out: maximum IOP decrease from baseline (percent)
Procedure: as §5, §6

normotensive dogs [3] = assay: Ocular surface hyperemia (OSH) in normotensive dogs; type: in vivo, dog; design: maximum OSH score: scale not given here; settings: 0.1%, dosing once daily for 5 days
Procedure: as §5, §6

[4] = Table 1, first part, triplicate, read-out: functional data (EC50) hEP2
[5] = Table 1, second part, read-out: hEP2 flipr EC50
[6] = Table 1, first part, triplicate, read-out: functional data (EC50) hEP4
[7] = Table 1, second part, read-out: hEP4 flipr EC50
[8] = Table 1, second part, quantity not given, values match functional data (EC50) of first part, read-out: Other Receptors hEP3

T2 sequence (P35408 whole entry): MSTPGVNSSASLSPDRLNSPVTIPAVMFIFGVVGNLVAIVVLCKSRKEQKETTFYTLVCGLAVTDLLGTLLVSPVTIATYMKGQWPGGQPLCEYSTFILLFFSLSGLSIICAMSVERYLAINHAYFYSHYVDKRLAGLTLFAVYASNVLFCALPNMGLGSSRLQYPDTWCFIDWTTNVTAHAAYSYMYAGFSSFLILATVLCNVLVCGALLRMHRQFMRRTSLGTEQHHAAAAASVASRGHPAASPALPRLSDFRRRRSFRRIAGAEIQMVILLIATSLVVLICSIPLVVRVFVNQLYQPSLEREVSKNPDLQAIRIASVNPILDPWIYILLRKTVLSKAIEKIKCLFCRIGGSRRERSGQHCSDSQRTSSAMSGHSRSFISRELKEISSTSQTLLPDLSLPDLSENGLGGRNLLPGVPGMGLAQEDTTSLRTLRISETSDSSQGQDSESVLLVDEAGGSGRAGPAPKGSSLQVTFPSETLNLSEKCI
T1 sequence (P43116 whole entry): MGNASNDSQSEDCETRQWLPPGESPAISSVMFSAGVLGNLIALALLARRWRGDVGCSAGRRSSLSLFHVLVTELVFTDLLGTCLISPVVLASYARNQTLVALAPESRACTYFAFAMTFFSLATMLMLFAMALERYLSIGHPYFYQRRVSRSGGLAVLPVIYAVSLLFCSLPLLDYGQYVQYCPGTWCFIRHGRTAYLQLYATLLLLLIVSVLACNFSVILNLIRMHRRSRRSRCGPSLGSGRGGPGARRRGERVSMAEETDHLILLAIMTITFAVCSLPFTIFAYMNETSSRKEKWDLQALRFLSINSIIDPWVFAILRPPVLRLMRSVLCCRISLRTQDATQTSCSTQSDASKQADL

| SMILES | pEC50 (hEP2/Gqs5; [4]) | pEC50 (hEP2/Gqs5; [5]) | pEC50 (hEP4/Gqs5; [6]) | pEC50 (hEP4/Gqs5; [7]) | maximum OSH score (normotensive dogs [3]) | time of maximum OSH score (normotensive dogs [3]) [h] | inhibition in vivo at 0.1 % (normotensive dogs [1]) [%] | inhibition in vivo at 0.1 % [2] [%] | also measured |
| --- | --- | --- | --- | --- | --- | --- | --- | --- | --- |
| COC(=O)CCCCCC[C@@H]1[C@@H](COc2cc(Cl)cc(Cl)c2)[C@H](O)C[C@H]1Cl [Example 13, 7-[(1R,2S,3R,5R)-5-Chloro-2-(3,5-dichloro-phenoxymethyl)-3-hydroxy-cyclopentyl]-heptanoic acid methyl ester] | 5.78 | – | < 5.00 | < 5.00 | – | – | – | – | pEC50 (hEP3A/Gqi5; Table 1, first part, data represents a single experiment, read-out: functional data (EC50) hEP3A*): < 5.00; pEC50 (hEP3A/Gqi5; [8]): < 5.00; pEC50 (hEP1; Table 1, first part, triplicate, read-out: functional data (EC50) hEP1): < 5.00; pEC50 (hEP1; Table 1, second part, quantity not given, values match functional data (EC50) of first part, read-out: Other Receptors hEP1): < 5.00; pEC50 (hDP/Gqs5; Table 1, first part, triplicate, read-out: functional data (EC50) hDP): < 5.00; pEC50 (hDP/Gqs5; Table 1, second part, quantity not given, values match functional data (EC50) of first part, read-out: Other Receptors hDP): < 5.00 |
| O=C(O)CCC/C=C\C[C@@H]1[C@@H](COc2cc(C(F)(F)F)cc(C(F)(F)F)c2)[C@H](O)C[C@H]1Cl [Example 15, (Z)-7-[(1R,2S,3R,5R)-2-(3,5-Bis-trifluoromethyl-phenoxymethyl)-5-chloro-3-hydroxy-cyclopentyl]-hept-5-enoic acid] | – | – | – | – | 0.9 | 52 | 35 | 30 | – |
| O=C(O)CCC/C=C\C[C@@H]1[C@@H](COc2cccc3ccccc23)[C@H](O)C[C@H]1Cl [Example 19, (Z)-7-[(1R,2S,3R,5R)-5-Chloro-3-hydroxy-2-(naphthalen-1-yloxymethyl)-cyclopentyl]-hept-5-enoic acid] | – | – | – | – | 0.8 | 54 | 41 | 31 | – |
| O=C(O)CCC/C=C\C[C@@H]1[C@@H](COc2cccc(C(F)(F)F)c2)[C@H](O)C[C@H]1Cl [Example 24, (Z)-7-[(1R,2S,3R,5R)-5-Chloro-3-hydroxy-2-(3-trifluoromethyl-phenoxymethyl)-cyclopentyl]-hept-5-enoic acid] | – | – | – | – | 0.5 | 6 | 16 | 28 | – |
| Cc1cc(C)cc(OC[C@@H]2[C@@H](C/C=C\CCCC(=O)O)[C@H](Cl)C[C@H]2O)c1 [Example 36, (Z)-7-[(1R,2S,3R,5R)-5-Chloro-2-(3,5-dimethyl-phenoxymethyl)-3-hydroxy-cyclopentyl]-hept-5-enoic acid] | – | – | – | – | 1.2 | 28 | 46 | 25 | – |
| O=C(O)CCC/C=C\C[C@@H]1[C@@H](COc2cc(C(F)(F)F)cc(Cl)c2F)[C@H](O)C[C@H]1Cl [Example 41, (Z)-7-[(1R,2S,3R,5R)-5-Chloro-2-(3-chloro-2-fluoro-5-trifluoromethyl-phenoxymethyl)-3-hydroxy-cyclopentyl]-hept-5-enoic acid] | – | – | – | – | – | – | – | – | pEC50 (hEP3A/Gqi5; [8]): 5.79 |
| O=C(O)CCC/C=C\C[C@@H]1[C@@H](COc2ccc(CO)cc2)[C@H](O)C[C@H]1Cl [Example 43, (Z)-7-[(1R,2S,3R,5R)-5-Chloro-3-hydroxy-2-(4-hydroxymethyl-phenoxymethyl)-cyclopentyl]-hept-5-enoic acid] | – | – | – | – | 0.6 | 98 | 20 | 6 | – |

More lines, main results first:

| pEC50 (hEP2/Gqs5; [4]) | pEC50 (hEP2/Gqs5; [5]) | pEC50 (hEP4/Gqs5; [6]) | pEC50 (hEP4/Gqs5; [7]) | maximum OSH score (normotensive dogs [3]) | time of maximum OSH score (normotensive dogs [3]) [h] | SMILES | inhibition in vivo at 0.1 % (normotensive dogs [1]) [%] | inhibition in vivo at 0.1 % [2] [%] | also measured |
| --- | --- | --- | --- | --- | --- | --- | --- | --- | --- |
| < 5.00 | < 5.00 | < 5.00 | < 5.00 | – | – | COC(=O)CCC/C=C\C[C@H]1C(=O)C=C[C@@H]1COc1ccccc1 [Example 1, (Z)-7-((1R,5S)-2-Oxo-5-phenoxymethyl-cyclopent-3-enyl)-hept-5-enoic acid methyl ester] | – | – | – |
| – | – | < 5.00 | < 5.00 | – | – | COC(=O)CCC/C=C\C[C@H]1C(=O)C[C@@H](O)[C@@H]1COc1ccccc1 [Example 2, (Z)-7-((1R,2S,3R)-3-Hydroxy-5-oxo-2-phenoxymethyl-cyclopentyl)-hept-5-enoic acid methyl ester] | – | – | – |
| < 5.00 | < 5.00 | < 5.00 | < 5.00 | – | – | COC(=O)CCCCCC[C@H]1C(=O)CC[C@@H]1COc1ccccc1 [Example 5, 7-((1R,5S)-2-Oxo-5-phenoxymethyl-cyclopentyl)-heptanoic acid methyl ester] | – | – | – |
| < 5.00 | < 5.00 | < 5.00 | < 5.00 | – | – | COC(=O)CCC/C=C\C[C@@H]1[C@@H](COc2ccccc2)[C@H](O)C[C@H]1Cl [Example 7, (Z)-7-((1R,2S,3R,5R)-5-Chloro-3-hydroxy-2-phenoxymethyl-cyclopentyl)-hept-5-enoic acid methyl ester] | – | – | – |
| < 5.00 | < 5.00 | 5.43 | – | – | – | COC(=O)CCCCCC[C@@H]1[C@@H](COc2ccccc2)[C@H](O)C[C@H]1Cl [Example 9, 7-((1R,2S,3R,5R)-5-Chloro-3-hydroxy-2-phenoxymethyl-cyclopentyl)-heptanoic acid methyl ester] | – | – | – |
